Results on 28 compounds are retold here after patent publication US10329260B2, “Human plasma kallikrein inhibitors” (BioCryst Pharmaceuticals, Inc., priority 2014, dated 2019).

The target of this experiment is human plasma kallikrein (Homo sapiens (Human), UniProt P03952). The experiment is described as follows: Plasma Kallikrein Activity Assay. The class given is biochemical. The following applies: 2 nM kallikrein, 80 μM chromogenic substrate S2302, 30° C., pH 7.8; Ki by Cheng-Prusoff equation.
Sequence of human plasma kallikrein (P03952 whole entry partner, looked up): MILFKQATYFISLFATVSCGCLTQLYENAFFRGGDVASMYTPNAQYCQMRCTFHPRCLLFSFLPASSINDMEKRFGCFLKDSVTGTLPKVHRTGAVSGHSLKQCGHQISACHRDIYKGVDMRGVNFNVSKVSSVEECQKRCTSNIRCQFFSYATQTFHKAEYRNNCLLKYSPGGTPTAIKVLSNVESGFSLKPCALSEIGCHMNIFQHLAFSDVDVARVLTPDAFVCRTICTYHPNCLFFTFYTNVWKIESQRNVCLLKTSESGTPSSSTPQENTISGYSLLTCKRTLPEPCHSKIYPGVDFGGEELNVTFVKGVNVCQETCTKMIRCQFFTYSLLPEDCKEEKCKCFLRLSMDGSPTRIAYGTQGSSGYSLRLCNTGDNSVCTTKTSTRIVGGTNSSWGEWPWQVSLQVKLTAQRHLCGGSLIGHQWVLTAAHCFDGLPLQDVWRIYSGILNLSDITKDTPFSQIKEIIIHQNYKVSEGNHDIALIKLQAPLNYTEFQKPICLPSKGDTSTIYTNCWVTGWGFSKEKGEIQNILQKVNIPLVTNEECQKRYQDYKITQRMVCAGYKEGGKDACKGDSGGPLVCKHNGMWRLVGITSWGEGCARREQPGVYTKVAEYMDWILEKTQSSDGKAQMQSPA
Sequence of human plasma kallikrein (P03952 whole entry, looked up): as the sequence (P03952 whole entry partner, looked up) above
As a reminder, the Ki is the dissociation constant of the complex between target and ligand, obtained from inhibition or displacement. In turn, `NCc1cccc(-n2nc(C(F)(F)F)cc2C(=O)Nc2cccc(Oc3ccccc3)c2)c1` [Compound 20d, 1-(3-(aminomethyl)phenyl)-N-(3-phenoxyphenyl)-3-(trifluoromethyl)-1H-pyrazole-5-carboxamide] returned a Ki of over 100 nM.

`NCc1cccc(-n2nc(C(F)(F)F)cc2C(=O)Nc2cc(F)cc(C(O)c3ccccc3)c2)c1` (stereo not shown) [Compound 97f, 1-(3-(aminomethyl)phenyl)-N-(3-fluoro-5-(hydroxy(phenyl)methyl)phenyl)-3-(trifluoromethyl)-1H-pyrazole-5-carboxamide] had a Ki of over 100 nM.

Consider `CC(C)[C@H](N)C(=O)OC(c1ccccc1)c1cccc(NC(=O)c2cc(C(F)(F)F)nn2-c2cccc(CN)c2)c1` (stereo partly drawn) [Compound 81c, (2S)-(3-(1-(3-(aminomethyl)phenyl)-3-(trifluoromethyl)-1H-pyrazole-5-carboxamido)phenyl)(phenyl)methyl 2-amino-3-methylbutanoate], for which the Ki is over 100 nM.

Compound `CCOC(c1ccccc1)c1ccc(Cl)c(NC(=O)c2cc(C(F)(F)F)nn2-c2cccc(CN)c2)c1` (stereo not shown) [Compound 33e, 1-(3-(aminomethyl)phenyl)-N-(2-chloro-5-(ethoxy(phenyl)methyl)phenyl)-3-(trifluoromethyl)-1H-pyrazole-5-carboxamide] returned a Ki of over 100 nM.

`NCc1cccc(-n2nc(C(F)(F)F)cc2C(=O)Nc2ccc(F)c(C(OCC3CC3)c3ccccc3)c2)c1` (stereo not shown) [Compound 76h, 1-(3-(aminomethyl)phenyl)-N-(3-((cyclopropylmethoxy)(phenyl)methyl)-4-fluorophenyl)-3-(trifluoromethyl)-1H-pyrazole-5-carboxamide] displayed a Ki of over 100 nM.

`NCc1cccc(-n2nc(C(F)(F)F)cc2C(=O)Nc2cc3c(cc2F)CNCC3)c1` [Compound 161e, 1-(3-(aminomethyl)phenyl)-N-(7-fluoro-1,2,3,4-tetrahydroisoquinolin-6-yl)-3-(trifluoromethyl)-1H-pyrazole-5-carboxamide] had a Ki of over 100 nM.

In turn, `NCc1cccc(-n2nc(C(F)(F)F)cc2C(=O)Nc2cc(Oc3ccccc3)ccc2F)c1` [Compound 24c, 1-(3-(aminomethyl)phenyl)-N-(2-fluoro-5-phenoxyphenyl)-3-(trifluoromethyl)-1H-pyrazole-5-carboxamide] registered a Ki of over 100 nM.

Compound `COc1ccc(-n2nc(C(F)(F)F)cc2C(=O)Nc2cc(C(O)(CCC3CC3)c3ccccn3)ccc2F)cc1` (stereo not shown) [Compound 160a, N-(5-(3-cyclopropyl-1-hydroxy-1-(pyridin-2-yl)propyl)-2-fluorophenyl)-1-(4-methoxyphenyl)-3-(trifluoromethyl)-1H-pyrazole-5-carboxamide] displayed a Ki of over 100 nM.

As to `N=C(NO)c1cccc(-n2nc(C(F)(F)F)cc2C(=O)Nc2cc(C(NCC3CC3)c3ccccc3)ccc2F)c1` (single isomer, unassigned; (-)) [Compound 232a, (−)-N-(5-((cyclopropylmethylamino)(phenyl)methyl)-2-fluorophenyl)-1-(3-(N-hydroxycarbamimidoyl)phenyl)-3-(trifluoromethyl)-1H-pyrazole-5-carboxamide], the Ki is over 100 nM.

The compound `NCc1cccc(-n2nc(C(F)(F)F)cc2C(=O)Nc2cccc(C(c3ccccc3)N3CCCC3CO)c2)c1` (stereo not shown) [Compound 169b, 1-(3-(Aminomethyl)phenyl)-N-(3-((2-(hydroxymethyl)pyrrolidin-1-yl)(phenyl)methyl)phenyl)-3-(trifluoromethyl)-1H-pyrazole-5-carboxamide] registered a Ki of over 100 nM.

On to `NCc1cccc(-n2nc(C(F)(F)F)cc2C(=O)Nc2cccc(C(NCCCO)c3ccccc3)c2)c1` (stereo not shown) [Compound 191b, 1-(3-(Aminomethyl)phenyl)-N-(3-(((3-hydroxypropyl)amino)(phenyl)methyl)phenyl)-3-(trifluoromethyl)-1H-pyrazole-5-carboxamide], for which the Ki was over 100 nM.

Take `NCc1cccc(-n2nc(C(F)(F)F)cc2C(=O)Nc2cccc(C(NC3CCCCCC3)c3ccccc3)c2)c1` (stereo not shown) [Compound 171b, 1-(3-(Aminomethyl)phenyl)-N-(3-((cycloheptylamino)(phenyl)methyl)phenyl)-3-(trifluoromethyl)-1H-pyrazole-5-carboxamide]: the Ki was over 100 nM.

Compound `CC(CO)NC(c1ccccc1)c1cccc(NC(=O)c2cc(C(F)(F)F)nn2-c2cccc(CN)c2)c1` (stereo not shown) [Compound 173b, 1-(3-(aminomethyl)phenyl)-N-(3-(((1-hydroxypropan-2-yl)amino)(phenyl)methyl)phenyl)-3-(trifluoromethyl)-1H-pyrazole-5-carboxamide] had a Ki of over 100 nM.

As to `N#Cc1cccc(C(N)(CCC2CC2)c2ccc(F)c(NC(=O)c3cc(C(F)(F)F)nn3-c3cccc(CN)c3)c2)c1` (single isomer, unassigned; (-)) [Compound 215d, (−)-N-(5-(1-amino-1-(3-cyanophenyl)-3-cyclopropylpropyl)-2-fluorophenyl)-1-(3-(aminomethyl)phenyl)-3-(trifluoromethyl)-1H-pyrazole-5-carboxamide], the Ki was over 100 nM.

`NCc1cccc(-n2nc(C(F)(F)F)cc2C(=O)Nc2cccc(C(c3ccccc3)N3CCC(O)C3)c2)c1` (stereo not shown) [Compound 170b, 1-(3-(Aminomethyl)phenyl)-N-(3-((3-hydroxypyrrolidin-1-yl)(phenyl)methyl)phenyl)-3-(trifluoromethyl)-1H-pyrazole-5-carboxamide] had a Ki of over 100 nM.

Regarding `CC(C)(C)c1ccc(C(NCC2CC2)c2cccc(NC(=O)c3cc(C(F)(F)F)nn3-c3cccc(CN)c3)c2)cc1` (stereo not shown) [Compound 203f, 1-(3-(aminomethyl)phenyl)-N-(3-((4-(tert-butyl)phenyl)((cyclopropylmethyl)amino)methyl)phenyl)-3-(trifluoromethyl)-1H-pyrazole-5-carboxamide], the Ki was over 100 nM.

Compound `Nc1n[nH]c2ccc(-n3nc(C(F)(F)F)cc3C(=O)Nc3cc(C(NCC4CC4)c4ccccc4)ccc3F)cc12` (stereo not shown) [Compound 224b, 1-(3-amino-1H-indazol-5-yl)-N-(5-((cyclopropylmethylamino)(phenyl)methyl)-2-fluorophenyl)-3-(trifluoromethyl)-1H-pyrazole-5-carboxamide] had a Ki of over 100 nM.

The compound `NCc1cccc(-n2nc(C(F)(F)F)cc2C(=O)Nc2cccc(C(NCc3ccc(N)cc3)c3ccccc3)c2)c1` (stereo not shown) [Compound 189b, N-(3-(((4-Aminobenzyl)amino)(phenyl)methyl)phenyl)-1-(3-(aminomethyl)phenyl)-3-(trifluoromethyl)-1H-pyrazole-5-carboxamide] registered a Ki of over 100 nM.

In turn, `CC(O)CNC(c1ccccc1)c1cccc(NC(=O)c2cc(C(F)(F)F)nn2-c2cccc(CN)c2)c1` (stereo not shown) [Compound 182b, 1-(3-(aminomethyl)phenyl)-N-(3-(((2-hydroxypropyl)amino)(phenyl)methyl)phenyl)-3-(trifluoromethyl)-1H-pyrazole-5-carboxamide] displayed a Ki of over 100 nM.

Turning to `CCC(C)CNC(c1ccccc1)c1cccc(NC(=O)c2cc(C(F)(F)F)nn2-c2cccc(CN)c2)c1` (stereo not shown) [Compound 177b, 1-(3-(Aminomethyl)phenyl)-N-(3-(((2-methylbutyl)amino)(phenyl)methyl)phenyl)-3-(trifluoromethyl)-1H-pyrazole-5-carboxamide], the Ki was over 100 nM.

With `N#Cc1cc(C(=O)Nc2cc(C(N)(CCC3CC3)c3ccc(C(N)=O)cc3)ccc2F)n(-c2cccc(CN)c2)n1` (single isomer, unassigned; (+)) [Compound 239d, (+)-N-(5-(1-amino-1-(4-carbamoylphenyl)-3-cyclopropylpropyl)-2-fluorophenyl)-1-(3-(aminomethyl)phenyl)-3-cyano-1H-pyrazole-5-carboxamide], the Ki was over 100 nM.

As to `CC(C)(C)CNC(c1ccccc1)c1cccc(NC(=O)c2cc(C(F)(F)F)nn2-c2cccc(CN)c2)c1` (stereo not shown) [Compound 187b, 1-(3-(Aminomethyl)phenyl)-N-(3-((neopentylamino)(phenyl)methyl)phenyl)-3-(trifluoromethyl)-1H-pyrazole-5-carboxamide], the Ki is over 100 nM.

`NCc1cccc(-n2nc(C(F)(F)F)cc2C(=O)Nc2cc(Cn3ccnc3)ccc2F)c1` [Compound 30g, N-(5-((1H-imidazol-1-yl)methyl)-2-fluorophenyl)-1-(3-(aminomethyl)phenyl)-3-(trifluoromethyl)-1H-pyrazole-5-carboxamide] registered a Ki of over 100 nM.

In the case of `Nc1noc2ccc(-n3nc(C(F)(F)F)cc3C(=O)Nc3cc(C(NCC4CC4)c4ccccc4)ccc3F)cc12` (single isomer, unassigned; (-)) [Compound 222k, (−)-1-(3-aminobenzo[d]isoxazol-5-yl)-N-(5-((cyclopropylmethylamino)(phenyl)methyl)-2-fluorophenyl)-3-(trifluoromethyl)-1H-pyrazole-5-carboxamide], the Ki is over 100 nM.

In turn, `NCc1cccc(-n2nc(C(F)(F)F)cc2C(=O)Nc2cccc(C(CC(N)=O)c3ccccc3)c2)c1` (stereo not shown) [Compound 40b, N-(3-(3-amino-3-oxo-1-phenylpropyl)phenyl)-1-(3-(aminomethyl)phenyl)-3-(trifluoromethyl)-1H-pyrazole-5-carboxamide] came in with a Ki of over 100 nM.

The compound `NCc1cccc(-n2nc(C(F)(F)F)cc2C(=O)Nc2cccc(C(NCc3ccncc3)c3ccccc3)c2)c1` (stereo not shown) [Compound 186b, 1-(3-(Aminomethyl)phenyl)-N-(3-(phenyl((pyridin-4-ylmethyl)amino)methyl)phenyl)-3-(trifluoromethyl)-1H-pyrazole-5-carboxamide] gave a Ki of over 100 nM.

Take `CSCCNC(c1ccccc1)c1cccc(NC(=O)c2cc(C(F)(F)F)nn2-c2cccc(CN)c2)c1` (stereo not shown) [Compound 190b, 1-(3-(aminomethyl)phenyl)-N-(3-(((2-(methylthio)ethyl)amino)(phenyl)methyl)phenyl)-3-(trifluoromethyl)-1H-pyrazole-5-carboxamide]: the Ki is over 100 nM.

In the case of `CC(C)CCNC(c1ccccc1)c1cccc(NC(=O)c2cc(C(F)(F)F)nn2-c2cccc(CN)c2)c1` (stereo not shown) [Compound 176b, 1-(3-(aminomethyl)phenyl)-N-(3-((isopentylamino)(phenyl)methyl)phenyl)-3-(trifluoromethyl)-1H-pyrazole-5-carboxamide], the Ki was over 100 nM.
